Assay results taken from BindingDB's records for doi:10.1021/jm00142a026 (1981).

Molecular target: Beta-1/Beta-2/Beta-3 adrenergic receptor (Rattus norvegicus, UniProt P10608+P18090+P26255)
Test: Binding affinity against Beta adrenergic receptor using [3H]dihydroalprenolol radioligand in rat brain homogenate

Chain of Beta-1/Beta-2/Beta-3 adrenergic receptor (P18090 whole entry): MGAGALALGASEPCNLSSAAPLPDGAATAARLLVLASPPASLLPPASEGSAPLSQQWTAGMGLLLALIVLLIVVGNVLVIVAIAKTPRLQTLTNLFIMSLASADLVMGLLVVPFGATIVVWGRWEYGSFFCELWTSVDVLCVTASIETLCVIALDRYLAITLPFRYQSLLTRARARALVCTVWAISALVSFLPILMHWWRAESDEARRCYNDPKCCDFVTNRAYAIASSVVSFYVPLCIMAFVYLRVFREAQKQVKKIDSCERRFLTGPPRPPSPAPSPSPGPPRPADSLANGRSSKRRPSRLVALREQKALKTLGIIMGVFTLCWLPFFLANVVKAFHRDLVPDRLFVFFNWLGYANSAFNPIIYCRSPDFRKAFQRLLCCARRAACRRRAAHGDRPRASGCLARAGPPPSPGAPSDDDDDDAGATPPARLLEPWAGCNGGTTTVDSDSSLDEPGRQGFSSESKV
Chain of Beta-1/Beta-2/Beta-3 adrenergic receptor (P26255 whole entry): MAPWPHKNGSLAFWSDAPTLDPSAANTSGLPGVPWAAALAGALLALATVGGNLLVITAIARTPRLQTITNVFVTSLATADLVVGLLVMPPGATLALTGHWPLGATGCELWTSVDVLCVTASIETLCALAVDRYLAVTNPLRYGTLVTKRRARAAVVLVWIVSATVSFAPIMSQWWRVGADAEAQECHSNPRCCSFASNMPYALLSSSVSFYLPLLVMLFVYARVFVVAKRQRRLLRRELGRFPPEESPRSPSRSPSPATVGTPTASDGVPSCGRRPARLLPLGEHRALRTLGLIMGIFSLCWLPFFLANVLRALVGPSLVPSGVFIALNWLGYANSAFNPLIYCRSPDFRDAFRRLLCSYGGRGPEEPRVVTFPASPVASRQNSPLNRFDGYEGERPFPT
Chain of Beta-1/Beta-2/Beta-3 adrenergic receptor (P10608 whole entry): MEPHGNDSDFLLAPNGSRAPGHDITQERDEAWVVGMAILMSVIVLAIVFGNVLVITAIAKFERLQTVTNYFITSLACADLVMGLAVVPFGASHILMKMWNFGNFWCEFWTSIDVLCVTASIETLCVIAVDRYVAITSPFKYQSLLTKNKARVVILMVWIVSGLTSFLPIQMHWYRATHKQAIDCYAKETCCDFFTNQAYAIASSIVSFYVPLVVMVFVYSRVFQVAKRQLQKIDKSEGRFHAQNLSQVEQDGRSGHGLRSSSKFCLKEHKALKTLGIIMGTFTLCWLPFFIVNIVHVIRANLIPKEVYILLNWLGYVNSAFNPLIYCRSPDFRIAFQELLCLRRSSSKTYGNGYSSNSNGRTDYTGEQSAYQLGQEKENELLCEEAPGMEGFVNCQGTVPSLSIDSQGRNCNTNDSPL

IC50 [µM] | SMILES
110 | CNCC(c1ccc(O)c(O)c1)S(=O)(=O)O (configuration not stated)
130 | NCC(c1ccc(O)c(O)c1)S(=O)(=O)O (configuration not stated)
